This is an account of results in patent US12565522B2, “Micropeptide HMMW and application thereof” (NANJING ANJI BIOTECHNOLOGY CO., LTD., priority 2019, dated 2026).

What all share (type): cell-based, human
Test [1] relates to SCC4 cells of head and neck cancer. Briefly: cells. Particulars: Homo sapiens, SCC-4, dose 10 μg/ml, 48 h, positive control, read-out: proliferation inhibition rate. On the procedure:
(§1) After SCC4 cells of head and neck cancer, SW579 cells of thyroid cancer, A549 cells of lung cancer, TE13 cells of esophageal squamous cell carcinoma, MGC803 cells of stomach cancer, MDA-MB-231 cells of breast cancer, UOK262 cells of kidney cancer and A431 cells of skin cancer of human were cultured in a 37 DEG C. 5% CO2 incubator until the density was 90%, they were digested and collected by trypsin, the cells were re-suspended in a culture solution and counted under a microscope, the concentration of the cells was adjusted to 3.0×10^4 cells/mL, and the cell suspension was inoculated to 96-well plates, 100 μL per well, and cultured in a 37 DEG C. 5% CO2 incubator overnight. After the cells were completely adherent, different doses of micropeptides HMMW I to IX were added as drug groups, taxol was used as a positive control group, and the culture solution without any drug was used as a blank control group. They were diluted with the culture solution till predetermined concentrations. The diluted solutions were added to 96-well plates, respectively, 100 μL per well, and incubated in a 37 DEG C. 5% CO2 incubator for 48 h. 20 μL of 5 mg/mL MTT was added to each well of the 96-well plates, and the culture was continued for 4 h. The culture medium was sucked away, and 100 μL of DMSO was added to each well for dissolution. Absorbance was detected by ELIASA at detection wavelength 570 nm and reference wavelength 630 nm, and proliferation inhibition (PI) was calculated according to Formula PI (%)=1−drug group/negative group. The test was independently repeated three times. The results obtained from the test were expressed with mean±SD and statistical t test was done. *P<0.05 means significant difference, and **P<0.01 means very significant difference.

In test [2] the test system is MDA-MB-231 cells of breast cancer. The test can be described thus: cells. Particulars: Homo sapiens, dose 10 μg/ml, 48 h, positive control, read-out: proliferation inhibition rate. On the procedure:
as §1

In test [3] the test system is SW579 cells of thyroid cancer. Briefly: cells. Particulars: Homo sapiens, dose 10 μg/ml, 48 h, positive control, read-out: proliferation inhibition rate. On the procedure: as §1
In test [4] the test system is UOK262 cells of kidney cancer. Briefly: cells. The note with it: Homo sapiens, UOK 262, dose 10 μg/ml, 48 h, positive control, read-out: proliferation inhibition rate. On the procedure: as §1
Test [5] has as its system A549 cells of lung cancer. Briefly: cells. Particulars: Homo sapiens, dose 10 μg/ml, 48 h, positive control, read-out: proliferation inhibition rate. On the procedure: as §1
Test [6] has as its system TE13 cells of esophageal squamous cell carcinoma. The test can be described thus: cells. The note with it: Homo sapiens, dose 10 μg/ml, 48 h, positive control, read-out: proliferation inhibition rate. On the procedure: as §1
The subject of test [7] is MGC803 cells of stomach cancer. The test can be described thus: cells. The note with it: Homo sapiens, MGC-803, dose 10 μg/ml, 48 h, positive control, read-out: proliferation inhibition rate. On the procedure: as §1
In test [8] the test system is A431 cells of skin cancer. Briefly: cells. Particulars: Homo sapiens, A-431, dose 10 μg/ml, 48 h, positive control, read-out: proliferation inhibition rate. On the procedure: as §1
Test [9] concerns SCC4 cells of head and neck cancer. Briefly: transwell migration test. Particulars: dose 10 (μM), 24 h. On the procedure:
(§2) Inoculate SCC4 cells of head and neck cancer, SW579 cells of thyroid cancer, A549 cells of lung cancer, TE13 cells of esophageal squamous cell carcinoma, MGC803 cells of stomach cancer, MDA-MB-231 cells of breast cancer, UOK262 cells of kidney cancer, and A431 cells of skin cancer of human to transwell cells, 100 μL per well, and meanwhile add micropeptides HMMW I to IX at different doses to every cell. Add 0.6 mL of complete medium containing 10% FBS to the transwell cells to stimulate cell migration, and culture in 5% CO2 at 37 DEG C. for 24 h. Discard the medium in the wells, fix with 90% alcohol at room temperature for 30 min, stain with 0.1% crystal violet at room temperature for 10 min, rinse with clear water, gently wipe off the non-migrated cells in the upper layer with a cotton swab, observe under a microscope and select four fields of view to take pictures and count. Calculate the migration inhibition rate (MIR) of the cells according to the following formula: […]
(§3) The test was repeated independently three times. Mean±SD was calculated based on the test results. Statistical t test was done. Here, “the test was repeated independently three times” means that every dose of any type of cells was tested repeatedly three times, and then the above formula was used to calculate the number of migrated cells (Mean±SD). Value P was used to express statistical difference. The statistical significance of the results is a method for estimating how true the results are (the totality can be represented), *P<0.05 means significant difference, and **P<0.01 means very significant difference.

The test system of test [10] is MDA-MB-231 cells of breast cancer. Briefly: transwell migration test. The note with it: dose 10 (μM), 24 h. On the procedure:
as §2, §3

Test [11] concerns SW579 cells of thyroid cancer. Briefly: transwell migration test. The note with it: dose 10 (μM), 24 h. On the procedure:
as §2, §3

Test [12] has as its system UOK262 cells of kidney cancer. Briefly: transwell migration test. The note with it: dose 10 (μM), 24 h. On the procedure:
as §2, §3

In test [13] the test system is A549 cells of lung cancer. The test can be described thus: transwell migration test. The note with it: dose 10 (μM), 24 h. On the procedure: as §2, §3
The subject of test [14] is TE13 cells of esophageal squamous cell carcinoma. Briefly: transwell migration test. The note with it: dose 10 (μM), 24 h. On the procedure:
as §2, §3

Test [15] has as its system MGC803 cells of stomach cancer. Briefly: transwell migration test. Particulars: 24 h. On the procedure:
as §2, §3

Test [16] deals with A431 cells of skin cancer. The test can be described thus: transwell migration test. Particulars: dose 10 (μM), 24 h. On the procedure:
as §2, §3

Test [17] relates to SCC4 cells of head and neck cancer. Briefly: Matrigel transwell invasion test. The note with it: dose 10 (unit not given), 24 h. On the procedure:
(§4) Dilute 10 mg/mL Matrigel with culture medium at 1:3, spread it on membranes of transwell cells and dry it in the air at room temperature. Use trypsin to digest and collect SCC4 cells of head and neck cancer, SW579 cells of thyroid cancer, A549 cells of lung cancer, TE13 cells of esophageal squamous cell carcinoma, MGC803 cells of stomach cancer, MDA-MB-231 cells of breast cancer, UOK262 cells of kidney cancer, and A431 cells of skin cancer of human, which were cultured to the logarithmic phase, wash with PBS twice and re-suspend with a blank culture medium. Adjust cell concentration to 1×10^5 cells/mL. Inoculate the cells to transwell cells, 100 μL per well, and meanwhile add micropeptides HMMW I to IX at different doses to every cell. Add 0.6 mL of complete medium containing 10% FBS to the transwell cells to stimulate cell invasion, and culture in 5% CO2 at 37 DEG C. for 24 h. Discard the medium in the wells, fix with 90% alcohol at room temperature for 30 min, stain with 0.1% crystal violet at room temperature for 10 min, rinse with clear water, gently wipe off the non-invaded cells in the upper layer with a cotton swab, observe under a microscope and select four fields of view to take pictures and count. Calculate the invasion inhibition rate (IIR) of the cells according to the following formula:
(§5) [formula] where Ntest is the number of invaded cells in the test groups (the groups at a dose of 1, 4 or 16 μM in the table), Ncontrol is the number of invaded cells in the blank control groups (the groups at a dose of 0 μM in the table). The test was repeated independently three times. Mean±SD was calculated based on the test results. Statistical t test was done. Value P was used to express statistical difference. The statistical significance of the results is a method for estimating how true the results are (the totality can be represented), *P<0.05 means significant difference, and **P<0.01 means very significant difference.

Test [18] deals with MDA-MB-231 cells of breast cancer. The test can be described thus: Matrigel transwell invasion test. The note with it: dose 10 (unit not given), 24 h. On the procedure: as §4, §5
For test [19], the system named is SW579 cells of thyroid cancer. The test can be described thus: Matrigel transwell invasion test. The note with it: dose 10 (unit not given), 24 h. On the procedure:
as §4, §5

In test [20] the test system is UOK262 cells of kidney cancer. The test can be described thus: Matrigel transwell invasion test. The note with it: dose 10 (unit not given), 24 h. On the procedure:
as §4, §5

For test [21], the system named is A549 cells of lung cancer. Briefly: Matrigel transwell invasion test. Particulars: dose 10 (unit not given), 24 h. On the procedure:
as §4, §5

Test [22] concerns TE13 cells of esophageal squamous cell carcinoma. The test can be described thus: Matrigel transwell invasion test. Particulars: dose 10 (unit not given), 24 h. On the procedure: as §4, §5
For test [23], the system named is MGC803 cells of stomach cancer. Briefly: Matrigel transwell invasion test. The note with it: dose 10 (unit not given), 24 h. On the procedure:
as §4, §5

The subject of test [24] is A431 cells of skin cancer. Briefly: Matrigel transwell invasion test. The note with it: dose 10 (unit not given), 24 h. On the procedure: as §4, §5

On to `CC(=O)O[C@H]1C(=O)[C@@]2(C)[C@H]([C@H](OC(=O)c3ccccc3)[C@]3(O)C[C@H](OC(=O)[C@H](O)[C@@H](NC(=O)c4ccccc4)c4ccccc4)C(C)=C1C3(C)C)[C@]1(OC(C)=O)CO[C@@H]1C[C@@H]2O` [Taxol, taxol, reference compound], for which the inhibition at 10 µg/mL in test [1] stood at 87%; in test [2] it was 83.9%; in test [3], 82.8%; in test [4], 83.9%; in test [5], 84.3%; in test [6] it was 79.2%. The inhibition at 10 µg/mL in test [7] amounted to 81.3%; in [8] it was 85.2%.

In the case of “Avastin: comparison group in the migration and invasion tables; not described in the text [reference compound]”, the migration inhibition rate in [9] was found to be 68.64%; in test [10], 62.19%; in test [11] it was 59.81%; in test [12], 61.39%; in test [13], 66.21%; in [14], 58.19%. Moreover, the figures for the migration inhibition rate in test [15] and in test [16] were 71.25% and 64.63%, respectively. For the same compound, the invasion inhibition rate turned out to be 68.41% in test [17]; 70.03% in [18]; 67.40% in test [19]; 72.16% in test [20]; 61.35% in test [21]; 69.31% in test [22]. Besides, the invasion inhibition rate in [23] stood at 63.48%; in [24], 70.39%.
